Assay results: patent publication US7138361B2, “Herbicidal heterocycles” (E. I. du Pont de Nemours and Company, priority 2000, dated 2006)

How the values were obtained:
Assay type in all cases: in vivo
[1] = system: Sunflower; test: Test C preemergence; details: scale 0 to 100, 0 no effect, 100 complete control
[2] = system: smallflower flatsedge (Cyperus difformis); test: Test C flooded paddy test; details: for Flatsedge plant response rating: Flooded Paddy, scale 0 to 100, 0 no effect, 100 complete control; for Plant response rating, Flatsedge: flooded paddy test, scale 0 to 100 (0 no effect, 100 complete control)
Summary of the method: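 Ratings come from visual comparison with control plants after 12 to 14 days in the greenhouse. Each species was at the 2-leaf stage when the flooded paddy was treated. Scores run from 0, meaning no effect, to 100, meaning complete control.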

[3] = system: morning glory (Ipomoea hederacea); test: Test B postemergence; details: 13 to 15 days
Summary of the method: (§1)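 Preemergence: seeds planted and treated with test chemicals in non-phytotoxic solvent with surfactant; postemergence on plants 2–18 cm (1- to 4-leaf stage). Kept in greenhouse 13–15 days, then visually rated against controls on a 0 (no effect) to 100 (complete control) scale.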

[4] = system: pigweed (Amaranthus retroflexus); test: Test B postemergence; details: 13 to 15 days
Summary of the method: as §1

[5] = system: blackgrass (Alopecurus myosuroides); test: Test B postemergence; details: 13 to 15 days
Summary of the method: as §1

[6] = system: cocklebur (Xanthium strumarium); test: Test B postemergence; details: 13 to 15 days
Summary of the method: as §1

[7] = system: wild oat (Avena fatua); test: Test B postemergence; details: 13 to 15 days
Summary of the method: as §1

[8] = system: wheat (Triticum aestivum); test: Test B postemergence; details: 13 to 15 days
Summary of the method: as §1

[9] = system: barnyardgrass (Echinochloa crus-galli); test: Test B postemergence; details: 13 to 15 days
Summary of the method: as §1

[10] = system: Surinam grass (Brachiaria decumbens); test: Test B postemergence; details: 13 to 15 days
Summary of the method: as §1

[11] = system: lambsquarters (Chenopodium album); test: Test B postemergence; details: 13 to 15 days
Summary of the method: as §1

[12] = system: corn (Zea mays); test: Test B postemergence; details: 13 to 15 days
Summary of the method: as §1

[13] = system: giant foxtail (Setaria faberii); test: Test B postemergence; details: 13 to 15 days
Summary of the method: as §1

[14] = system: velvetleaf (Abutilon theophrasti); test: Test B postemergence; details: 13 to 15 days
Summary of the method: as §1

[15] = system: crabgrass (Digitaria sanguinalis); test: Test B postemergence; details: 13 to 15 days
Summary of the method: as §1

[16] = system: Sunflower; test: Test C preemergence; details: Rate 500 g/ha, visual evaluation after 12 to 14 days
[17] = system: morning glory (Ipomoea hederacea); test: Test B preemergence
Summary of the method: as §1

[18] = system: pigweed (Amaranthus retroflexus); test: Test B preemergence
Summary of the method: as §1

[19] = system: cocklebur (Xanthium strumarium); test: Test B preemergence
Summary of the method: as §1

[20] = system: rice (Oryza saliva); test: Test B preemergence
Summary of the method: as §1

[21] = system: barnyardgrass (Echinochloa crus-galli); test: Test B preemergence
Summary of the method: as §1

[22] = system: Surinam grass (Brachiaria decumbens); test: Test B preemergence
Summary of the method: as §1

[23] = system: lambsquarters (Chenopodium album); test: Test B preemergence
Summary of the method: as §1

[24] = system: corn (Zea mays); test: Test B preemergence
Summary of the method: as §1

[25] = system: giant foxtail (Setaria faberii); test: Test B preemergence
Summary of the method: as §1

[26] = system: velvetleaf (Abutilon theophrasti); test: Test B preemergence
Summary of the method: as §1

[27] = system: crabgrass (Digitaria sanguinalis); test: Test B preemergence
Summary of the method: as §1

[28] = Rate 125 g/ha, scale 0 (no effect) to 100 (complete control)
[29] = Rate 500 g/ha, scale 0 to 100, 0 is no effect, 100 is complete control
[30] = Preemergence, Rate 500 g/ha, scale 0 to 100, 0 no effect, 100 complete control
[31] = preemergence, Rate 125 g/ha, scale of 0 to 100 where 0 is no effect and 100 is complete control, 13 to 15 days

SMILES: COc1cc(OC)cc(N2CCC(n3ccc(C(C)(C)C)n3)C2=O)c1 (centres unmarked) [Compound 71]
- Plant response rating, Sunflower ([1]; Rate 125 g/ha): 0
- Plant response rating, Sunflower ([1]; Rate 250 g/ha): 0
- Flatsedge plant response rating ([2]; Rate 250 g/ha): 100
- Flatsedge plant response rating ([2]; Rate 500 g/ha): 100
- Plant response rating, Flatsedge ([2]; Rate 62 g/ha): 80
- Plant response rating, Flatsedge ([2]; Rate 125 g/ha): 100
- Plant response rating, Morningglory [3, 28]: 20
- Plant response rating, Morningglory [3, 29]: 20
- Plant response rating, Pigweed [4, 28]: 30
- Plant response rating, Pigweed [4, 29]: 60
- Plant response rating, Blackgrass [5, 28]: 0
- Plant response rating, Blackgrass [5, 29]: 0
- Plant response rating, Cocklebur [6, 28]: 0
- Plant response rating, Cocklebur [6, 29]: 20
- Plant response rating, Wild Oat [7, 28]: 0
- Plant response rating, Wild Oat [7, 29]: 0
- Plant response rating, Wheat [8, 28]: 0
- Plant response rating, Wheat [8, 29]: 0
- Plant response rating, Barnyardgrass [9, 28]: 0
- Plant response rating, Barnyardgrass [9, 29]: 0
- Plant response rating, Surinam grass [10, 28]: 0
- Plant response rating, Surinam grass [10, 29]: 30
- Plant response rating, Lambsquarters [11, 28]: 0
- Plant response rating, Lambsquarters [11, 29]: 50
- Plant response rating, Corn [12, 28]: 0
- Plant response rating, Corn [12, 29]: 0
- Plant response rating, Foxtail, Giant [13, 28]: 0
- Plant response rating, Foxtail, Giant [13, 29]: 20
- Plant response rating, Velvetleaf [14, 28]: 0
- Plant response rating, Velvetleaf [14, 29]: 20
- Plant response rating, Crabgrass [15, 28]: 0
- Plant response rating, Crabgrass [15, 29]: 30
- Plant response rating (0 to 100), Sunflower [16]: 20
- Plant response rating, Morningglory [17, 30]: 0
- Plant response rating, Morningglory [17, 31]: 0
- Plant response rating, Pigweed [18, 30]: 100
- Plant response rating, Pigweed [18, 31]: 100
- Plant response rating, Cocklebur [19, 30]: 0
- Plant response rating, Cocklebur [19, 31]: 0
- Plant response rating, Rice [20, 30]: 40
- Plant response rating, Rice [20, 31]: 20
- Plant response rating, Barnyardgrass [21, 30]: 90
- Plant response rating, Barnyardgrass [21, 31]: 10
- Plant response rating, Surinam grass [22, 30]: 40
- Plant response rating, Surinam grass [22, 31]: 40
- Plant response rating, Lambsquarters [23, 30]: 100
- Plant response rating, Lambsquarters [23, 31]: 100
- Plant response rating, Corn [24, 30]: 20
- Plant response rating, Corn [24, 31]: 0
- Plant response rating, Foxtail, Giant [25, 30]: 100
- Plant response rating, Foxtail, Giant [25, 31]: 90
- Plant response rating, Velvetleaf [26, 30]: 30
- Plant response rating, Velvetleaf [26, 31]: 0
- Plant response rating, Crabgrass [27, 30]: 100
- Plant response rating, Crabgrass [27, 31]: 50

SMILES: CCOC(=O)c1cccc(N2CCC(n3ccc(C(C)(C)C)n3)C2=O)c1 (centres unmarked) [Compound 72]
- Plant response rating, Sunflower ([1]; Rate 125 g/ha): 20
- Plant response rating, Sunflower ([1]; Rate 250 g/ha): 20
- Flatsedge plant response rating ([2]; Rate 250 g/ha): 90
- Flatsedge plant response rating ([2]; Rate 500 g/ha): 100
- Plant response rating, Flatsedge ([2]; Rate 62 g/ha): 60
- Plant response rating, Flatsedge ([2]; Rate 125 g/ha): 90
- Plant response rating, Morningglory [3, 28]: 20
- Plant response rating, Morningglory [3, 29]: 50
- Plant response rating, Pigweed [4, 28]: 20
- Plant response rating, Pigweed [4, 29]: 60
- Plant response rating, Blackgrass [5, 28]: 0
- Plant response rating, Blackgrass [5, 29]: 0
- Plant response rating, Cocklebur [6, 28]: 80
- Plant response rating, Cocklebur [6, 29]: 90
- Plant response rating, Wild Oat [7, 28]: 0
- Plant response rating, Wild Oat [7, 29]: 0
- Plant response rating, Wheat [8, 28]: 0
- Plant response rating, Wheat [8, 29]: 0
- Plant response rating, Barnyardgrass [9, 28]: 30
- Plant response rating, Barnyardgrass [9, 29]: 70
- Plant response rating, Surinam grass [10, 28]: 0
- Plant response rating, Surinam grass [10, 29]: 0
- Plant response rating, Lambsquarters [11, 28]: 0
- Plant response rating, Lambsquarters [11, 29]: 0
- Plant response rating, Corn [12, 28]: 0
- Plant response rating, Corn [12, 29]: 0
- Plant response rating, Foxtail, Giant [13, 28]: 0
- Plant response rating, Foxtail, Giant [13, 29]: 50
- Plant response rating, Velvetleaf [14, 28]: 30
- Plant response rating, Velvetleaf [14, 29]: 60
- Plant response rating, Crabgrass [15, 28]: 0
- Plant response rating, Crabgrass [15, 29]: 30
- Plant response rating (0 to 100), Sunflower [16]: 60
- Plant response rating, Morningglory [17, 30]: 90
- Plant response rating, Morningglory [17, 31]: 0
- Plant response rating, Pigweed [18, 30]: 100
- Plant response rating, Pigweed [18, 31]: 100
- Plant response rating, Cocklebur [19, 30]: 60
- Plant response rating, Cocklebur [19, 31]: 0
- Plant response rating, Rice [20, 30]: 0
- Plant response rating, Rice [20, 31]: 0
- Plant response rating, Barnyardgrass [21, 30]: 100
- Plant response rating, Barnyardgrass [21, 31]: 100
- Plant response rating, Surinam grass [22, 30]: 70
- Plant response rating, Surinam grass [22, 31]: 0
- Plant response rating, Lambsquarters [23, 30]: 100
- Plant response rating, Lambsquarters [23, 31]: 100
- Plant response rating, Corn [24, 30]: 0
- Plant response rating, Corn [24, 31]: 0
- Plant response rating, Foxtail, Giant [25, 30]: 100
- Plant response rating, Foxtail, Giant [25, 31]: 100
- Plant response rating, Velvetleaf [26, 30]: 90
- Plant response rating, Velvetleaf [26, 31]: 0
- Plant response rating, Crabgrass [27, 30]: 100
- Plant response rating, Crabgrass [27, 31]: 100

SMILES: CC(C)(C)c1ccn(C2CCN(c3ccc(F)c(Br)c3)C2=O)n1 (centres unmarked) [Compound 75]
- Plant response rating, Sunflower ([1]; Rate 250 g/ha): 0
- Flatsedge plant response rating ([2]; Rate 250 g/ha): 100
- Flatsedge plant response rating ([2]; Rate 500 g/ha): 100
- Plant response rating, Flatsedge ([2]; Rate 62 g/ha): 90
- Plant response rating, Flatsedge ([2]; Rate 125 g/ha): 90
- Plant response rating, Morningglory [3, 28]: 20
- Plant response rating, Morningglory [3, 29]: 60
- Plant response rating, Pigweed [4, 28]: 50
- Plant response rating, Pigweed [4, 29]: 90
- Plant response rating, Blackgrass [5, 28]: 0
- Plant response rating, Blackgrass [5, 29]: 0
- Plant response rating, Cocklebur [6, 28]: 0
- Plant response rating, Cocklebur [6, 29]: 0
- Plant response rating, Wild Oat [7, 28]: 0
- Plant response rating, Wild Oat [7, 29]: 0
- Plant response rating, Wheat [8, 28]: 0
- Plant response rating, Wheat [8, 29]: 0
- Plant response rating, Barnyardgrass [9, 28]: 0
- Plant response rating, Barnyardgrass [9, 29]: 0
- Plant response rating, Surinam grass [10, 28]: 0
- Plant response rating, Surinam grass [10, 29]: 0
- Plant response rating, Lambsquarters [11, 28]: 70
- Plant response rating, Lambsquarters [11, 29]: 80
- Plant response rating, Corn [12, 28]: 0
- Plant response rating, Corn [12, 29]: 0
- Plant response rating, Foxtail, Giant [13, 28]: 0
- Plant response rating, Foxtail, Giant [13, 29]: 0
- Plant response rating, Velvetleaf [14, 28]: 0
- Plant response rating, Velvetleaf [14, 29]: 50
- Plant response rating, Crabgrass [15, 28]: 0
- Plant response rating, Crabgrass [15, 29]: 0
- Plant response rating (0 to 100), Sunflower [16]: 50
- Plant response rating, Morningglory [17, 30]: 0
- Plant response rating, Morningglory [17, 31]: 0
- Plant response rating, Pigweed [18, 30]: 100
- Plant response rating, Pigweed [18, 31]: 100
- Plant response rating, Cocklebur [19, 30]: 70
- Plant response rating, Cocklebur [19, 31]: 30
- Plant response rating, Rice [20, 30]: 70
- Plant response rating, Rice [20, 31]: 50
- Plant response rating, Barnyardgrass [21, 30]: 100
- Plant response rating, Barnyardgrass [21, 31]: 100
- Plant response rating, Surinam grass [22, 30]: 100
- Plant response rating, Surinam grass [22, 31]: 60
- Plant response rating, Lambsquarters [23, 30]: 100
- Plant response rating, Lambsquarters [23, 31]: 100
- Plant response rating, Corn [24, 30]: 20
- Plant response rating, Corn [24, 31]: 0
- Plant response rating, Foxtail, Giant [25, 30]: 100
- Plant response rating, Foxtail, Giant [25, 31]: 100
- Plant response rating, Velvetleaf [26, 30]: 70
- Plant response rating, Velvetleaf [26, 31]: 50
- Plant response rating, Crabgrass [27, 30]: 100
- Plant response rating, Crabgrass [27, 31]: 100
